The values that follow come from patent EP0209707A2, “2-Aryl imidazoles, pharmaceutical compositions containing them and process for their preparation” (Dr. Karl Thomae GmbH, priority 1985, dated 1987).

In assay [1] the test system is narkotisierten Katze. In words: Blood pressure effect and positive inotropic effect in the anaesthetised cat. Format: in vivo. The conditions noted are these: arterial pressure in Aorta abdominalis. As to the method: 1. Bestimmung der Blutdruckwirkung und der positiv inotropen Wirkung an der narkotisierten Katze
Die Untersuchungen wurden an Katzen durchgeführte die mit Pentobarbital-Natrium (40 mg/kg i.p.) narkotisiert waren. Die Tiere atmeten spontan. Der arterielle Blutdruck wurde in der Aorta abdominalis mit einem Statham-Druckwandler (P 23 Dc) gemessen. Für die Erfassung der positiv inotropen Wirkung wurde mit einem Kathetertipmanometer (Millar PC-350 A) der Druck in der linken Herzkammer gemessen. Daraus wurde der Kontraktilitätsparameter dp/dtmax mittels eines Analogdifferenzierers gewonnen. Die zu untersuchenden Substanzen wurden in eine Vena femoralis injiziert. Als Lösungsmittel diente Polydiol 200. Jede Substanz wurde an mindestens 2 Katzen geprüft.
Die nachfolgende Tabelle enthält die gefundenen Mittelwerte: […]

The test system of assay [2] is Thrombozytenaggregation in plättchenreichem Plasma gesunder Versuchspersonen. The assay is described as follows: Collagen-induced platelet aggregation (Born and Cross) in platelet-rich plasma. In kind it is cell-based. The conditions noted are these: 10 min, 50% change of optical density, plasma incubated 10 min with substance at 37°C. The source says:
Die Thrombozytenaggregation wird nach der Methode von BORN und CROSS (J. Physiol. 170, 397 (1964)) in plättchenreichem Plasma gesunder Versuchspersonen gemessen. Zur Gerinnungshemmung wird das Blut mit Natriumcitrat 3,14 % im Volumenverhältnis 1:10 versetzt.
Der Verlauf der Abnahme der optischen Dichte der Plättchensuspension wird nach Zugabe der aggregationsauslösenden Substanz photometrisch gemessen und registriert. Aus dem Neigungswinkel der Dichtekurve wird auf die Aggregationsgeschwindigkeit geschlossen. Der Punkt der Kurve, bei dem die größte Lichtdurchlässigkeit vorliegt, dient zur Berechnung der "optical density".
Die Collagen-Menge wird möglichst gering gewählt, aber doch so, daß sich eine irreversibel verlaufende Reaktionskurve ergibt. Verwendet wird das handelsübliche Collagen der Firma Hormonchemie, München.
Vor der Collagen-Zugabe wird das Plasma jeweils 10 Minuten mit der Substanz bei 37°C inkubiert.
Aus den erhaltenen Meßzahlen wird graphisch eine EC50 berechnet, die sich auf eine 50%ige Änderung der "optical density" im Sinne einer Aggregationshemmung bezieht.

Where [3] appears, read: second value of the printed pair (presumably diastolic), 1 mg/kg i.v.

SMILES strings stand for the structures.

Usually EC50 stands for the concentration at which the effect is half-maximal. Lower therefore signals higher potency in that assay. For the compound `COc1cc(S(C)(=O)=NC(C)=O)ccc1-c1nc2cc(C#N)ccc2[nH]1` (centres unmarked) [A, 2-[2'-Methoxy-4'-(N-acetyl-methylsulfoximino-phenyl)]-5-cyano-benzimidazol], the “Blutdruck senkung in mm Hg” value in assay [1] (setting [3]) is -20 mm Hg. Moreover, the EC50 in assay [2] was determined as 5.3 µM.
On to `COc1cc([S+](C)[O-])ccc1-c1nc2ccc(C(C)=O)cc2[nH]1` (centres unmarked) [B, 2-(2'-Methoxy-4'-methylsulfinyl-phenyl)-5-acetyl-benzimidazol], for which, in assay [1] (setting [3]), the “Blutdruck senkung in mm Hg” value is recorded as -28 mm Hg. Besides, it took 8.2 µM to reach a half-maximal effect in assay [2] (EC50).
`COc1cc(S(C)(=O)=O)ccc1-c1nc2ccc(C(C)=O)cc2[nH]1` [C, 2-(2'-Methoxy-4'-methylsulfonyl-phenyl)-5-acetyl-benzimidazol]: in assay [1] (setting [3]), the “Blutdruck senkung in mm Hg” value is -24 mm Hg. Further, the EC50 in assay [2] was determined as 8 µM.
Consider `COc1cc(NS(C)(=O)=O)ccc1-c1nc2ccc(C#N)cc2[nH]1` [D, 5-Cyano-2-(4'-methansulfonylamino-2'-methoxy-phenyl)-benzimidazol], for which the “Blutdruck senkung in mm Hg” value in assay [1] (second value of the printed pair (presumably diastolic), 0,6 mg/kg i.v.) is -27 mm Hg.
On to `COC(=O)Nc1ccc(-c2nc3cnccc3[nH]2)c(OC)c1` [E, 2-(2'-Methoxy-4'-methoxycarbonylamino-phenyl)-imidazo-[4,5-c]pyridin], for which the “Blutdruck senkung in mm Hg” value in assay [1] (second value of the printed pair (presumably diastolic), 2 mg/kg i.v.) was -12 mm Hg.
